Test results as given in patent EP1038880B1, “Androstanes and pregnanes for allosteric modulation of GABA receptor” (priority 1994, dated 1995).
Where two headings read alike, the source gives them in different places.

Legend:
(+)bicuculline [1] = details: cited from earlier work
tonic seizure [2] = details: cited from earlier work
[3] = test system: metrazol induced convulsions; details: cited from earlier work
picrotoxin [4] = details: cited from earlier work
strychnine [5] = details: convulsant i.v.; data from Worms et al. 1982; cited from earlier work
strychnine [6] = assay: Anticonvulsant test against strychnine; type: in vivo, mice; details: Mus musculus, read-out: ED50 STR
Procedure: (§1) The anticonvulsant tests are similar to that described above. […] The number of animals with tonic and/or clonic convulsions was recorded. In the maximal electroshock test, 50 mA of current at 60 Hz was delivered through corneal electrodes for 200 msec to induce tonic seizure. The ability of compounds to abolish the tonic component was defined as the endpoint. General CNS depression potential was determined by a rotorod test 10 minutes after the injection of compounds where the number of mice staying on a rotating (6 rpm) rod for 1 minute in one of the three trials was determined. […] Table 7. Anticonvulsant Activity of Exemplified Neuroactive Steroids and those of Selected Clinically Useful Anticonvulsants in Mice

[7] = test system: metrazol induced convulsions; assay: animal or person; type: in vivo, mice; details: Mus musculus; metrazol 85 mg/kg s.c., steroids i.p., mice
Procedure: Experiments were also performed to determine the physiological relevance of neuroactive steroid and GABA receptor interactions by assessing the ability of the compounds of and used in the invention to prevent metrazol induced convulsions in mice. Mice were injected with various doses of the test compounds of the invention, 10 minutes prior to the injection of metrazol. The time to onset of myoclomis (presence of forelimb clonic activity) induced by metrazol was determined by observing each mouse for a period of 30 minutes. […] Table 6: Antimetrazol Activity of Neuroactive Steroids in Mice
as §1

Glucocorticoid Receptors = target: T1, Glucocorticoid Receptors (Rattus norvegicus, UniProt P06536); assay: Inhibition of 3H-dexamethasone binding, brain cytosol; set-up: species or system rats; dose or concentration left out as unconfirmed; details: read-out: % of Inhibition
T1 construct: from tissue; host or cells: rat brain cytosol
T1 sequence (P06536 1-795): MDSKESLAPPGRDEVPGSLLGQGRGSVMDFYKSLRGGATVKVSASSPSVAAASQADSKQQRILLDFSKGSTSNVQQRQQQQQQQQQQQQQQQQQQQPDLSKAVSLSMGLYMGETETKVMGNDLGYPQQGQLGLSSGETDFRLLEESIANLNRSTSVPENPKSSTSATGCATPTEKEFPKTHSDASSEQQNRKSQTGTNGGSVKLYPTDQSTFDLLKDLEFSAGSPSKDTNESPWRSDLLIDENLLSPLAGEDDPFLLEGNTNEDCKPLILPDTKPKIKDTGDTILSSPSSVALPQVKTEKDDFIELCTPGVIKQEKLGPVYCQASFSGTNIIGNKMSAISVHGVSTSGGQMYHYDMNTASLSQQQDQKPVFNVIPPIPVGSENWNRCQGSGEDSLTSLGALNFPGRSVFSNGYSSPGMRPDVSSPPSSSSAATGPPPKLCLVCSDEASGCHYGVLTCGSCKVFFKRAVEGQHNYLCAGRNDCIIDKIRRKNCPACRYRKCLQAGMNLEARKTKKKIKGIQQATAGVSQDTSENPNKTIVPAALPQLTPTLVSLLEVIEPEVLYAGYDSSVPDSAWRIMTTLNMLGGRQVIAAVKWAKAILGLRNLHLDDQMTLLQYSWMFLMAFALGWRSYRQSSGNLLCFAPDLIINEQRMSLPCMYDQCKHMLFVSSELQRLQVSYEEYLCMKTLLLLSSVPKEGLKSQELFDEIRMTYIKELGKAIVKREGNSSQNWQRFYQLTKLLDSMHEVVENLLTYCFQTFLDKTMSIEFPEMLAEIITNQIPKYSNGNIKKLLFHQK
Procedure: (§2) Various hormonal activities of representative neuroactive steroids were further studied through testing their potential estrogenic, mineralocorticoid and glucocorticoid activities. These activities were analyzed by monitoring the ability of the compounds to inhibit binding of the steroid hormones to their respective hormone receptors.
For Table 4, brain cytosol fractions were prepared as for Table 3, and the compounds were incubated with 3 nM of ^3H-dexamethasone (the specific ligand for the glucocorticoid receptor).

tonic seizure [8] = assay: Maximal electroshock test; type: in vivo; details: Mus musculus, ip, steroids i.p., mice
Procedure: as §1

picrotoxin [9] = assay: Anticonvulsant test against picrotoxin; type: in vivo, mice; details: Mus musculus, read-out: ED50 PICRO
Procedure: as §1

[10] = test system: Bovine Uteral Progesterone Receptors; assay: Inhibition of 3H-progesterone binding, uterus cytosol; details: competitor 10^-6M; 3H-progesterone 0.15 nM
Procedure: The data presented were obtained by performing assays in accordance with the procedures described in et al. 1988 previously to determine the effect of progesterone metabolites and their derivatives and the progestin R5020 on the binding of [^3H]R5020 to the progesterone receptor in rat uterus (Gee et al. 1988).
^3H-progesterone (0.15 nM) was incubated with the rat uterus cytosol in the presence of the test compounds. The specific binding were determined after incubation and compared to the control incubation without the compounds. The data are expressed as percent inhibition of binding.
In Table 3, rats were adrenalectomized 3 days prior to sacrifice. To isolate the mineralocorticoid receptor, brain cytosol fractions were prepared as describe in Gee, et al. 1988. The drugs were incubated with 3 nM of ^3H-aldosterone (the specific ligand for the mineralocorticoid receptor) in the presence of the selective type II agonist RU28362 (0.5 µM) which blocks ^3H-aldosterone binding to the type II (glucocorticoid) receptors. Table 2. Inhibition of 3H-Progesterone Binding to the Bovine Uteral Progesterone Receptors

(+)bicuculline [11] = assay: Anticonvulsant test against (+)bicuculline; type: in vivo, mice; details: Mus musculus, read-out: ED50 BIC
Procedure: as §1

[12] = target: T2, Hippocampal Mineralocorticoid Receptors (Rattus norvegicus, UniProt P22199); assay: Inhibition of 3H-aldosterone binding, brain cytosol; set-up: species or system rats; details: competitor 10^-6M; 3 nM 3H-aldosterone, RU28362 0.5 µM
T2 construct: To isolate the mineralocorticoid receptor, brain cytosol fractions were prepared; from tissue; host or cells: rat brain (hippocampal) cytosol
T2 sequence (P22199 1-981): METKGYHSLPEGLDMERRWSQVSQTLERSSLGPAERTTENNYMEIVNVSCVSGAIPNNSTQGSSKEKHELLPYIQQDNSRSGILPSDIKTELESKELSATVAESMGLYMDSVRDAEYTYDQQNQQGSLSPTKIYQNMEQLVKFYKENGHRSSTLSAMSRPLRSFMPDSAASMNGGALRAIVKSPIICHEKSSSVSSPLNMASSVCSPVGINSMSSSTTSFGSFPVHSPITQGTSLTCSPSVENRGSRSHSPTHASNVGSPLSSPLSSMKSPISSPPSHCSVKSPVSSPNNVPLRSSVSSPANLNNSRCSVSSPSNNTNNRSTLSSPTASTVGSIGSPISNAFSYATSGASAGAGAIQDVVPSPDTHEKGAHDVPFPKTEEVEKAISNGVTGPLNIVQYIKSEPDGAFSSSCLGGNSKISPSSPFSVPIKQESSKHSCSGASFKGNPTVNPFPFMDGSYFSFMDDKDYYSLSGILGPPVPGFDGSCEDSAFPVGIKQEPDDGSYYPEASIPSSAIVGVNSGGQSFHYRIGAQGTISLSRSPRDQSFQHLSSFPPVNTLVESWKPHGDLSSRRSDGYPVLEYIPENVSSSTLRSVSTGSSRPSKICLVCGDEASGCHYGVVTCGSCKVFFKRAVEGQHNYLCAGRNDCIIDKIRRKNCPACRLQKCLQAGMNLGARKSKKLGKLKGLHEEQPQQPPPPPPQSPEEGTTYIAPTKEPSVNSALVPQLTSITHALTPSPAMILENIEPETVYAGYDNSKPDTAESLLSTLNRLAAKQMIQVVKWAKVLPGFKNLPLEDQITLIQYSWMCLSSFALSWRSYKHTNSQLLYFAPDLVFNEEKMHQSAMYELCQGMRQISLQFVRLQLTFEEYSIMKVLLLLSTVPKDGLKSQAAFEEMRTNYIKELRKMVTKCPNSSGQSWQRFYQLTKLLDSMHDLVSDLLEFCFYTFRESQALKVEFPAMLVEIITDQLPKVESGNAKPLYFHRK
Procedure: as §2
In Table 3, rats were adrenalectomized 3 days prior to sacrifice. […] Table 2. Inhibition of 3H-Progesterone Binding to the Bovine Uteral Progesterone Receptors
Table 3. Inhibition of 3H-Aldosterone Binding to Hippocampal Mineralocorticoid Receptors

mice [13] = details: data from Swinyard & Woodhead 1982; cited from earlier work
mice [14] = assay: Loss-of-righting reflex (anesthetic activity); type: in vivo; details: iv
Procedure: The compounds of and used in the invention can also be used for anesthetic indications at high doses. However, the preferred route of administration to induce anesthesia is intravenous (i.v.) administration. In animals, a drug's anesthetic properties is measured by the drug's ability to produce a loss-of-righting reflex. The loss-of-righting reflex is defined as the inability of an animal to right itself within […] on its back. Mice were administered drug i.v. in the lateral tail vein. Following administration, mice were placed on their backs and observed for loss-of-righting reflex. Table 12. Anesthetic Activity of Neuroactive Steroids in Mice

[15] = target: T3, Bovine Uteral Estrogen Receptors (Bos taurus, UniProt P49884); assay: Inhibition of 3H-estradiol binding, uteri cytosol; details: competitor 10^-6M; 3H-estradiol 0.15 nM
T3 construct: from tissue; host or cells: bovine uteri cytosol
T3 sequence (P49884 1-596): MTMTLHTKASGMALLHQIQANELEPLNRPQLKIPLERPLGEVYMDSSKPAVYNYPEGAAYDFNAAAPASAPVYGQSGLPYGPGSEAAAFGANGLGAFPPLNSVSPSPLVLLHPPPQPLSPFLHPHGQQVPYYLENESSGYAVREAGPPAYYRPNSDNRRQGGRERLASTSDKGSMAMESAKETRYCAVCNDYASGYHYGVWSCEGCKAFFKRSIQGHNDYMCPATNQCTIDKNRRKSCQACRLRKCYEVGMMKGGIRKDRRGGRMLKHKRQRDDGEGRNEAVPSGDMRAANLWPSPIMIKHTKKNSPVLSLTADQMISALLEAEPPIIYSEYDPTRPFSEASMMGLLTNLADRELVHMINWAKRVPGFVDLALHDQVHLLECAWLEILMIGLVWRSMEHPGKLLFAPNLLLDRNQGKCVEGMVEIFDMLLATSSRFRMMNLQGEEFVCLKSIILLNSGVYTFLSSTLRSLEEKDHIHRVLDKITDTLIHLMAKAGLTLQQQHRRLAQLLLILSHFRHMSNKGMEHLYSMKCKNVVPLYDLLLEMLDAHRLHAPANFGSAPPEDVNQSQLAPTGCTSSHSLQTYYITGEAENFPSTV

[16] = test system: N.I.H. Swiss-Webster mice; assay: Light/dark transition test; type: in vivo; details: IP, 10 min test, vs control, Dunnett's t-test (Fig. 8)
Procedure: Male N.I.H. Swiss-Webster mice (Harlan, Harlan, Indianapolis, IN) weighing 15-20 g were housed four per cage in polyethylene cages with sawdust bedding. The colony room was environmentally controlled (22°C) with a hr light/dark cycle (0600-1800hr). Food and water were available ad libitum, except during testing. The experiments were run from 0700-1500 hr and groups were counterbalanced for time of day effects. Mice were only administered drug or vehicle once.
The apparatus included two 2-compartment automated test chambers (Model RXYZCM16, Omnitech Electronics, Columbus, OH). The open compartment was connected to the enclosed compartment via a 7.5 × 7.5 cm passageway. The open compartment was brightly lit using a 200 W incandescent light bulb. The experimental room was kept dark. Interruptions of the infrared beams in either chamber were automatically recorded by being linked to a computer through a Digiscan Analyzer (Omnitech and the data was analyzed using the Integrated Lab Animal Monitoring System (Omnitech Electronics). N.IH. Swiss-Webster mice were administered vehicle or test drug intraperiotoneally (IP),10 min later they were placed in the center of the lit compartment. The number of transitions between the lit and dark chambers, total activity in the lit chamber and the time spent in the lit chamber were measured during a 10 min test period.

[17] = convulsant i.v., data from Worms et al. 1982
[18] = data from Swinyard & Woodhead 1982

NC(=O)CCC/N=C(\c1ccc(Cl)cc1)c1cc(F)ccc1O [Progabide]
ED50 BIC ((+)bicuculline [1]; [17]): 30 mg/kg
ED50 MES (tonic seizure [2]; data from Worms et al. 1982): 75 mg/kg
ED50 MTZ [3, 17]: 30 mg/kg
ED50 PICRO (picrotoxin [4]; [17]): 105 mg/kg
ED50 STR (strychnine [5]): 75 mg/kg

CC(=O)[C@H]1CC[C@H]2[C@@H]3CC[C@H]4C[C@](C)(O)CC[C@]4(C)[C@H]3CC[C@]12C [3α-hydroxy-3β-methyl-5α-pregnan-20-one]
ED50 (strychnine [6]): > 100 mg/kg
ED50 [7]: 6.3 mg/kg
inhibition (Glucocorticoid Receptors): 0.6%
ED50 (tonic seizure [8]): > 100 mg/kg
ED50 (picrotoxin [9]): 35.4 mg/kg
% of Inhibition [10]: 4%
ED50 ((+)bicuculline [11]): 61.9 mg/kg
inhibition at 1 µM [12]: 3.2%

CCC1(c2ccccc2)C(=O)NC(=O)NC1=O [Phenobarbital]
ED50 RR (mice [13]): 69 mg/kg

O=C1CN=C(c2ccccc2Cl)c2cc([N+](=O)[O-])ccc2N1 [Clonazepam]
ED50 BIC ((+)bicuculline [1]; [18]): 0.0086 mg/kg
ED50 MES (tonic seizure [2]; [18]): 93 mg/kg
ED50 RR (mice [13]): 0.184 mg/kg
ED50 MTZ [3, 18]: 0.009 mg/kg
ED50 PICRO (picrotoxin [4]; [18]): 0.043 mg/kg

CO/C=C1/CC[C@H]2[C@@H]3CC[C@H]4C[C@H](O)CC[C@@H]4[C@H]3CC[C@]12C [3α-Hydroxy-17(Z)-methoxymethylene-19-nor-5α-androstane]
Loss-of-Righting Reflex (mice [14]; 5 mg/kg): 75

5α-pregnan-3β,20-trimethyl-3α,20-diol
% of Inhibition [10]: 8%
% of Inhibition [15]: 0%
% of Inhibition [12]: 0%

CC(=O)[C@H]1CC[C@H]2[C@@H]3CC[C@@H]4C[C@H](O)CC[C@]4(C)[C@H]3CC[C@]12C [5β-pregnan-3α-ol-20-one, 3α-OH-5β-pregnan-20-one]
% of Inhibition [10]: 9%
number of transitions between the dark box and the light box, in words [16]: significantly increased

CC(=O)[C@H]1CC[C@H]2[C@@H]3CC[C@@H]4C[C@@](O)(C#CCl)CC[C@]4(C)[C@H]3CC[C@]12C [3β-(Chloroethynyl)-3α-hydroxy-5β-pregnan-20-one]
Loss-of-Righting Reflex (mice [14]; 20 mg/kg): 100

CC(=O)[C@H]1CC[C@H]2[C@@H]3CC[C@H]4C[C@H](O)CC[C@]4(C)C3=CC[C@]12C [3α-Hydroxy-5α-pregn-9-en-20-one]
Loss-of-Righting Reflex (mice [14]; 10 mg/kg): 100
